Data: article PMC11375437, “Selective labelling of GBA2 in cells with fluorescent β-D-arabinofuranosyl cyclitol aziridines” (Chemical Science, 2024)

Molecular target: T1, GBA2 (Homo sapiens, UniProt Q9HCG7)
T1 sequence (Q9HCG7 1-927): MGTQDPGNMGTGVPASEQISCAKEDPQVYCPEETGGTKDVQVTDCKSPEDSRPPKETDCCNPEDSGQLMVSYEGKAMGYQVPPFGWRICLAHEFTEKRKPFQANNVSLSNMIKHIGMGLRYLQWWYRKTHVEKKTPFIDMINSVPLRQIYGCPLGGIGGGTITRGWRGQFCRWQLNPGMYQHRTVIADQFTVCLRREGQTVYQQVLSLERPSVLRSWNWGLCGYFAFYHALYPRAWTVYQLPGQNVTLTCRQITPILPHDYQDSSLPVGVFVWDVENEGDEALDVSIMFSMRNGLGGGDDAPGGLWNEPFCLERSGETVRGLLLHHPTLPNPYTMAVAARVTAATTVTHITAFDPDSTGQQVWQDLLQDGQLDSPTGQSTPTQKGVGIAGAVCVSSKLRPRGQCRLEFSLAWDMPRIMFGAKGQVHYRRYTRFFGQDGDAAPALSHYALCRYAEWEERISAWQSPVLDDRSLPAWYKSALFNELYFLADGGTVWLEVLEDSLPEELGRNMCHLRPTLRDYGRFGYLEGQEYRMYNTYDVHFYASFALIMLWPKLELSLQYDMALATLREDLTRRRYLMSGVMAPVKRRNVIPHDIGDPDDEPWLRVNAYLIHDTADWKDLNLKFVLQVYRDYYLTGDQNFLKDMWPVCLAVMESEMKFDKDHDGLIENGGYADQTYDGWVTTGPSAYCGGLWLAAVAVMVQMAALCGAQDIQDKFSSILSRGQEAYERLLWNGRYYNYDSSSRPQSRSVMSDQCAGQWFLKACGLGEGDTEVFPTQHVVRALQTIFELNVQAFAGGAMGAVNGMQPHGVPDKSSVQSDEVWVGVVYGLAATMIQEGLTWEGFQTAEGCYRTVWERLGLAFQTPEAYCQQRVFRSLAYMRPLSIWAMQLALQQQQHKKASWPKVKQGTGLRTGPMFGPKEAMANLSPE
Test: In situ labelling of wild-type HEK293T cells, GBA2
Format: cell-based
Design: endogenous in cells; host or cells: wild-type HEK293T
Conditions: wild-type HEK293T intact cells; 24 h incubation
Method: Importantly, the GBA2 selectivity of β-D-Araf ABPs 3–5 was maintained during in situ labelling of wild-type HEK293T cells (ESI Fig. S9 ^†). […] Even after 24 h incubation, similar results were obtained: ABP 4 selectively labelled GBA2 at 10 nM, with only slight concomitant GBA1 labelling at concentrations higher than 100 nM (ESI Fig. S10 ^†). Selective GBA2 labelling by ABP 3 and 4 finally was also observed in human retinal pigment epithelial-1 cells (Fig. 5C).
Figure S9. Fluorescent gel images of in situ labelling of wild-type HEK293T cells by β-D-Araf aziridine ABPs 3-5.
β-D-Araf ABPs were firstly incubated with intact wild-type HEK293T cells for 1 or 2.5 h (1st incubation) and then cells were harvested. […]
2.12 Reactivity of β-D-Araf aziridines towards GBA2 orthologue in other species β-D-Araf aziridine ABP 3-5 or ABP 7 was incubated with homogenates of zebrafish (Danio rerio) larvae or mice brain for 1 h at 37 °C. […] The zebrafish homogenates were passed through a desalting column (in the same way as described for the irreversibility evaluation above) to remove interference from biological pigments when scanning at λEX 473 nm and λEM ≥ 510 nm for BODIPY green fluorescence. […]

## COc1ccc(C2=[N+]3C(=C(CCCCc4cn(CCCCCCCCN5[C@@H]6[C@H](CO)[C@@H](O)[C@H](O)[C@@H]65)nn4)c4ccc(-c5ccc(OC)cc5)n4[B-]3(F)F)C=C2)cc1 (stereo partly shown) [ABP 4]
  Concentration at which GBA2 is selectively labelled in situ: 10 nM
